Experimental data from ChEMBL document CHEMBL1159296, “A Revised Structure for Rhinacanthone” (1995).

Test system: Pyricularia oryzae
Assay: Antifungal activity against Pyricularia oryzae assessed as inhibition of spore germination at 10 ppm
Assay type: functional

CC1(C)COC2=C(C1)C(=O)C(=O)c1ccccc12 [RHINACANTHONE]
inhibition at 10 ppm: 100%
